Laboratory results from ChEMBL document CHEMBL1132921, “Analogues of the potent nonpolyglutamatable antifolate N(alpha)-(4-amino-4-deoxypteroyl)-N(delta)-hemiphthaloyl-L-ornithine (PT523) with modifications in the side chain, p-aminobenzoyl moiety, or 9,10-bridge: synthesis and in vitro antitumor activity” (J Med Chem, 2000).

system: CCRF-CEM; test: Growth inhibition of CCRF-CEM human leukemic lymphoblasts; assay type: functional, cell-based

Compound	IC50 [nM]
Nc1nc(N)c2nc(CNc3ccc(C(=O)NC(CCCNC(=O)c4ccc(C(=O)O)cc4)C(=O)O)cc3)cnc2n1 (centres undefined)	55
Nc1nc(N)c2nc(CNc3ccc(C(=O)NC(CCSCNC(=O)c4ccccc4C(=O)O)C(=O)O)cc3)cnc2n1 (centres undefined)	5
Nc1nc(N)c2nc(CNc3ccc(C(=O)NC(CCNC(=O)c4ccccc4C(=O)O)C(=O)O)cc3)cnc2n1 (centres undefined)	5.5
Nc1nc(N)c2nc(CNc3ccc(C(=O)NC(CCCNC(=O)c4cccc(C(=O)O)c4)C(=O)O)cc3)cnc2n1 (centres undefined)	7.5
CCC(Cc1cnc2nc(N)nc(N)c2n1)(C(=O)OC)c1ccc(C(=O)NC(CCCNC(=O)c2ccccc2C(=O)O)C(=O)O)cc1 (centres undefined)	54
Nc1nc(N)c2nc(CNc3ccc(C(=O)NC(CSCNC(=O)c4ccccc4C(=O)O)C(=O)O)cc3)cnc2n1 (centres undefined)	4.4
Nc1nc(N)c2nc(CNc3ccc(C(=O)NC(CNC(=O)c4ccccc4C(=O)O)C(=O)O)cc3)cnc2n1 (centres undefined)	5.1
Nc1nc(N)c2nc(CNc3ccc(C(=O)N[C@@H](CCC(=O)O)C(=O)O)cc3)cnc2n1 [AMINOPTERIN]	4.4

Now those with a lower IC50, led by results:

IC50 [nM]	Compound
3.3	CCC(Cc1cnc2nc(N)nc(N)c2n1)c1ccc(C(=O)N[C@@H](CCC(=O)O)C(=O)O)cc1 (some centres undefined) [EDATREXATE]
2.9	Nc1nc(N)c2nc(CNc3ccc(C(=O)NC(CCCCNC(=O)c4ccccc4C(=O)O)C(=O)O)cc3)cnc2n1 (centres undefined)
1.2	Nc1nc(N)c2nc(CNc3ccc(C(=O)NC(CCCNC(=O)c4ccccc4C(=O)O)C(=O)O)c4ccccc34)cnc2n1 (centres undefined)
1.2	CCC(Cc1cnc2nc(N)nc(N)c2n1)c1ccc(C(=O)NC(CCCNC(=O)c2ccccc2C(=O)O)C(=O)O)cc1 (centres undefined)
0.63	CC(Cc1cnc2nc(N)nc(N)c2n1)c1ccc(C(=O)NC(CCCNC(=O)c2ccccc2C(=O)O)C(=O)O)cc1 (centres undefined)
0.53	Nc1nc(N)c2nc(CCc3ccc(C(=O)NC(CCCNC(=O)c4ccccc4C(=O)O)C(=O)O)cc3)cnc2n1 (centres undefined)
